In the supplement of paper PMC6045584:
± gives the standard deviation of the averaged measurements.

Key:
[1] = compound: C[C@@H]1CN(CC(=O)Nc2ccc3c(c2)Cc2cccc(-c4cc(=O)cc(N5CCOCC5)o4)c2S3)C[C@H](C)O1; test: surviving fraction relative to DMSO-only wells; higher = less growth inhibition; conditions: exposure time: 5 days
How it was run: (§1)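 Tumour cell lines in log phase were plated in 384-well plates at 250–500 cells per well, then, after 24 hours, exposed continuously for five days to inhibitors at 0.5, 1, 5, 10, 50, 100, 500 and 1000 nM. Viability came from CellTiter-Glo luminescence, and surviving fraction is that signal normalised to the median of DMSO-only wells. Plates were read after 10 minutes at room temperature, and each line, screened three times, was kept only when replicate Pearson r was >0.7 and median Z' was >0.3.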

CABOZANTINIB = compound: COc1cc2nccc(Oc3ccc(NC(=O)C4(C(=O)Nc5ccc(F)cc5)CC4)cc3)c2cc1OC [CABOZANTINIB]; test: as above; conditions: exposure time: 5 days
How it was run: as §1

Test System	surviving fraction ([1]; 0.5 nM)	surviving fraction ([1]; 1 nM)	surviving fraction ([1]; 5 nM)	surviving fraction ([1]; 10 nM)	surviving fraction ([1]; 50 nM)	surviving fraction ([1]; 100 nM)	surviving fraction ([1]; 500 nM)	surviving fraction ([1]; 1000 nM)	surviving fraction (CABOZANTINIB; 0.5 nM)	surviving fraction (CABOZANTINIB; 1 nM)	surviving fraction (CABOZANTINIB; 5 nM)	surviving fraction (CABOZANTINIB; 10 nM)	surviving fraction (CABOZANTINIB; 50 nM)	surviving fraction (CABOZANTINIB; 100 nM)	surviving fraction (CABOZANTINIB; 500 nM)	surviving fraction (CABOZANTINIB; 1000 nM)
CAL72 BONE	1.01 ± 0.015	1.06 ± 0.03	1.03 ± 0.011	1.03 ± 0.021	0.955 ± 0.021	0.97 ± 0.0097	0.897 ± 0.026	0.811 ± 0.026	1.03 ± 0.082	1.03 ± 0.093	1.07 ± 0.11	1.06 ± 0.079	1.09 ± 0.095	1.14 ± 0.019	1.11 ± 0.12	1.08 ± 0.11
CAL120 BREAST	1.01 ± 0.029	1.02 ± 0.013	1.03 ± 0.02	1.04 ± 0.011	1.02 ± 0.022	1 ± 0.015	0.946 ± 0.046	0.87 ± 0.018	0.918 ± 0.082	0.924 ± 0.054	0.941 ± 0.056	0.921 ± 0.051	0.968 ± 0.052	0.923 ± 0.019	0.893 ± 0.045	0.886 ± 0.026
CASKI CERVIX	0.925 ± 0.041	0.982 ± 0.035	0.963 ± 0.019	0.989 ± 0.07	0.91 ± 0.047	0.855 ± 0.057	0.759 ± 0.04	0.625 ± 0.037	0.969 ± 0.021	0.914 ± 0.05	0.942 ± 0.021	0.907 ± 0.063	0.959 ± 0.031	0.907 ± 0.021	0.953 ± 0.038	0.768 ± 0.027
CHLA90 AUTONOMIC GANGLIA	1.03 ± 0.052	1.07 ± 0.045	0.994 ± 0.07	1.08 ± 0.07	0.979 ± 0.0078	0.999 ± 0.068	1 ± 0.11	0.966 ± 0.041	0.917 ± 0.024	0.936 ± 0.052	0.9 ± 0.065	0.863 ± 0.016	0.913 ± 0.023	0.907 ± 0.072	0.868 ± 0.11	0.856 ± 0.097
CME SYNOVIAL	1.35 ± 0.097	1.44 ± 0.15	1.25 ± 0.042	1.28 ± 0.13	1.11 ± 0.085	1.02 ± 0.054	0.689 ± 0.11	0.388 ± 0.014	1.23 ± 0.11	1.24 ± 0.16	1.24 ± 0.11	1.21 ± 0.042	1.2 ± 0.046	1.19 ± 0.15	1.1 ± 0.071	1.01 ± 0.12
COLO320DM LARGE INTESTINE	1.04 ± 0.11	1.06 ± 0.12	1.05 ± 0.13	1.07 ± 0.059	1.04 ± 0.033	1.09 ± 0.037	1.03 ± 0.056	0.99 ± 0.015	1.08 ± 0.12	1.07 ± 0.13	1.04 ± 0.13	1.11 ± 0.08	1.18 ± 0.069	1.23 ± 0.093	1.16 ± 0.049	1.04 ± 0.099
DU4475 BREAST	1.12 ± 0.23	1.08 ± 0.011	0.951 ± 0.13	1.18 ± 0.12	0.794 ± 0.22	1.12 ± 0.36	1.31 ± 0.55	1.05 ± 0.23	0.782 ± 0.12	0.874 ± 0.076	0.868 ± 0.053	0.93 ± 0.16	0.899 ± 0.19	0.781 ± 0.085	0.908 ± 0.096	1.03 ± 0.12
H23 LUNG	1.08 ± 0.042	1.05 ± 0.021	1.11 ± 0.048	1.1 ± 0.033	1.09 ± 0.083	1.17 ± 0.056	1.06 ± 0.036	1.05 ± 0.045	0.962 ± 0.052	0.931 ± 0.021	0.974 ± 0.022	0.924 ± 0.032	0.945 ± 0.043	0.936 ± 0.053	0.937 ± 0.066	0.925 ± 0.028
HCC78 LUNG	1.13 ± 0.16	0.941 ± 0.26	1.07 ± 0.11	1.21 ± 0.21	1.15 ± 0.17	1.41 ± 0.29	1.27 ± 0.39	1.29 ± 0.013	0.826 ± 0.047	0.884 ± 0.047	0.991 ± 0.044	0.608 ± 0.16	0.315 ± 0.049	0.281 ± 0.088	0.185 ± 0.023	0.221 ± 0.058
HCC202 BREAST	1.01 ± 0.17	0.911 ± 0.089	0.845 ± 0.24	1.11 ± 0.26	0.84 ± 0.11	0.946 ± 0.25	0.845 ± 0.18	0.838 ± 0.28	1.12 ± 0.14	1.11 ± 0.079	1.2 ± 0.031	1.15 ± 0.17	1.1 ± 0.28	1.13 ± 0.065	1.31 ± 0.12	1.09 ± 0.098
